# Laboratory results reported in patent publication US20250339402A1, “EFFECTIVE MEANS TO MODULATE NMDA RECEPTOR-MEDIATED TOXICITY” (FUNDAMENTAL PHARMA GMBH, priority 2022, published 2025).
# Where a name gives a salt, the structure may show the parent alone.
# System: Primary mouse hippocampal neurons
# Test: Excitotoxic (glutamate/NMDA-induced) cell death in primary neuronal cultures, protection index
# Type: cell-based
# Conditions: Mus musculus, Hippocampal neuron; third subset; excitotoxic cell death in primary neuronal cultures
# Procedure: Primary mouse hippocampal neurons were prepared as previously described (Bading & Greenberg, Science, 1991; 253: 912-914; Zhang et al, Neuron, 2007, 53: 549-562) and maintained in Neurobasal-A medium supplemented with 2% B27, 5 mM L-Glutamax, and 0.5% Penicillin/Streptomycin until challenged with NMDA on days in vitro (DIV) 10. Glutamate-induced cell death was analyzed in a real-time manner by monitoring nuclear localized mCherry with IncuCyte® S3 Live-Cell Analysis System (Sartorius AG, Germany). Primary neurons plated in 24 well plates were infected with rAAV-hSyn-mCherry on DIV3 and challenged with 1 μM or 20 μM glutamate on DIV10. All compounds were added to the culture 30 min prior to glutamate/NMDA insult. Images were acquired following the glutamate application for 24 h with a 2 h interval, where 9-16 images were obtained via a 20×objective for each condition at each time point. Cell deaths were quantified by analyzing the existence of nuclear localized mCheery via the Basic Analyzer with Incucyte® 2021 software, size and average intensity were used as exclusion criteria.
# In order to evaluate the protective effects of various compounds, a quantification method was developed to determine each compound's protection index. The protection index (from 0.0 to 10.0) was calculated by the area above the curve (AAC) during a 24 h excitotoxic stimuli, where the cell survival was normalized to the 0 h (FIG. 2), following the equation: […]
# Where AAC represents for each compound, AACbasal represents for the basal condition without excitotoxic insult, AACVeh represents for the vehicle control with excitotoxic insult. Based on the equation, vehicle (DMSO) has a protection index at 0.0 and compound P401 of WO 2020/079244 has a protection index at 6.0 (at 10 μM).
# The inventors also performed experiments with Group A compounds at lower concentration in a 3-fold dilution matter ([…]: 3.0, 1.0, 0.3, 0.1, 0.03) and were able to achieve a similar protection effect as 10 μM compound P401, but at a lower concentration.
row,SMILES,IC50 [nM]
1,"CC(c1cccc(Br)c1F)N(CCN)C1CC1 (stereo not drawn) [Compound 191, N^1-(1-(3-bromo-2-fluorophenyl)ethyl)-N^1-cyclopropylethane-1,2-diamine hydrochloride]",230
2,"N#Cc1cccc(C(N(CCN)C2CC2)C(F)(F)F)c1F (stereo not drawn) [Compound 261, 3-[1-[2-aminoethyl(cyclopropyl)amino]-2,2,2-trifluoro-ethyl]-2-fluoro-benzonitrile hydrochloride]",109
3,"CCCN(CCN)C(CC)c1cccc(Cl)c1F (stereo not drawn) [Compound 262, N1-(1-(3-chloro-2-fluorophenyl)propyl)-N1-propylethane-1,2-diamine hydrochloride]",10
4,"NCCN(C1CC1)C(c1cccc(Cl)c1F)C(F)(F)F (stereo not drawn) [Compound 263, N^1-(1-(3-chloro-2-fluorophenyl)-2,2,2-trifluoroethyl)-N^1-cyclopropylethane-1,2-diamine hydrochloride]",255
5,"CCC(c1cccc(Cl)c1F)N(CCN)C1CC1 (stereo not drawn) [Compound 224, N1-(1-(3-chloro-2-fluorophenyl)propyl)-N1-cyclopropylethane-1,2-diamine hydrochloride]",26
6,"CC(C)C(c1cccc(C#N)c1F)N(CCN)C1CC1 (stereo not drawn) [Compound 264, 3-(1-((2-aminoethyl)(cyclopropyl)amino)-2-methylpropyl)-2-fluorobenzonitrile TFA salt]",3
7,CC(c1c(F)ccc(Cl)c1F)N(CCN)C1CC1.Cl (stereo not drawn) [Compound 187],2000
8,"N#Cc1cccc(CN(CCN)C2CC2)c1F [Compound 219, 3-(((2-aminoethyl)(cyclopropyl)amino)methyl)-2-fluorobenzonitrile hydrochloride]",480
9,CCC(c1cccc(Br)c1F)N(CCN)C1CC1 (stereo not drawn) [Compound 258],13
10,"NCCN(C1CC1)C(CC(F)(F)F)c1cccc(Cl)c1F (stereo not drawn) [Compound 247, N^1-(1-(3-chloro-2-fluorophenyl)-3,3,3-trifluoropropyl)-N^1-cyclopropylethane-1,2-diamine hydrochloride]",10
11,CC(c1cc(Cl)ccc1F)N(CCN)C1CC1 (stereo not drawn) [Compound 243],300
12,"C=CCC(c1cccc(Cl)c1F)N(CCN)C1CC1 (stereo not drawn) [Compound 271A, N′-[1-(3-chloro-2-fluoro-phenyl)but-3-enyl]-N′-cyclopropyl-ethane-1,2-diamine TFA salt]",7
13,"C#Cc1cccc(C(C)N(CCN)C2CC2)c1F (stereo not drawn) [Compound 295, N′-cyclopropyl-N′-[1-(3-ethynyl-2-fluoro-phenyl)ethyl]ethane-1,2-diamine TFA salt]",32
14,NCCN(C1CC1)C(c1cccc(Cl)c1F)C1CCCC1 (stereo not drawn) [Compound 268],280
15,"CCC(c1cccc(C#N)c1F)N(CCN)C1CC1 (stereo not drawn) [Compound 257, 3-(1-((2-aminoethyl)(cyclopropyl)amino)propyl)-2-fluorobenzonitrile hydrochloride]",11
16,CC(c1cccc(Br)c1F)N(CCN)C1CCC1 (stereo not drawn) [Compound 227B],300
17,CCC(c1cccc(Cl)c1F)N(CCN)C1CC(F)(F)C1 (stereo not drawn) [Compound 248],120
18,CC(C)C(c1cccc(Cl)c1F)N(CCN)C1CC1 (stereo not drawn) [Compound 225],5
19,"CC(c1scc(Br)c1F)N(CCN)C1CC1 (stereo not drawn) [Compound 297A, N′-[1-(4-bromo-3-fluoro-2-thienyl)ethyl]-N′-cyclopropyl-ethane-1,2-diamine TFA salt]",81
20,CCC(c1c(F)ccc(C#N)c1F)N(CCN)C1CC1 (stereo not drawn) [Compound 259],32
21,CC(c1c(F)cccc1Cl)N(CCN)C1CC1 (stereo not drawn) [Compound 186],800
22,"N#Cc1cccc(C(CC(F)(F)F)N(CCN)C2CC2)c1F (stereo not drawn) [Compound 280, 3-(1-((2-aminoethyl)(cyclopropyl)amino)-3,3,3-trifluoropropyl)-2-fluorobenzonitrile hydrochloride]",36
23,NCCN(Cc1cccc(Br)c1F)C1CC1 [Compound 219B],1450
24,CC(c1c(Cl)ccc(Cl)c1F)N(CCN)C1CC1 (stereo not drawn) [Compound 242],300

# Same assay, conditions: first subset; protection index from area above curve over 24 h glutamate/NMDA insult; compounds added 30 min before; 10 μM, Group A also at lower concentrations
row,SMILES,Biological Activity Rating
1,"NCCN(Cc1cccc(Cl)c1F)C1CCC1 [Compound 159, N1-(3-chloro-2-fluorobenzyl)-N1-cyclobutylethane-1,2-diamine dihydrochloride]","A++ (With a protection index between 5.0 to 7.0, provides a comparable protection to compound P401 (10 μM) at 1.0 μM.)"
2,NCCN(Cc1cccc(Cl)c1)CC1CC1 [Compound 134],"B (With a protection index between 5.0 to 7.0, provides a comparable protection to compound P401 (10 μM) at 10 μM.)"
3,C=CCN(CCN)Cc1cccc(Cl)c1 [Compound 136],"A (With a protection index over 7.0, provides a significantly better protection over compound P401 (10 μM) at 10 μM.)"
4,CSCCN(CCN)Cc1cccc(Cl)c1 [Compound 126],"B (With a protection index between 5.0 to 7.0, provides a comparable protection to compound P401 (10 μM) at 10 μM.)"
5,"NCCN(Cc1cccc(Cl)c1F)CC(F)F [Compound 118, N1-(3-chloro-2-fluorobenzyl)-N1-(2,2-difluoroethyl)ethane-1,2-diamine]","C (With a protection index between 3.0 to 5.0, provides a significantly lower protection compared to compound P401 (10 μM) at 10 μM.)"
6,NCCN(Cc1cccc(Cl)c1)CC1CCC1 [Compound 135],"B (With a protection index between 5.0 to 7.0, provides a comparable protection to compound P401 (10 μM) at 10 μM.)"
7,C=CCN(CCN)Cc1cccc(Cl)c1F [Compound 160],"A (With a protection index over 7.0, provides a significantly better protection over compound P401 (10 μM) at 10 μM.)"
8,"NCCN(Cc1cccc(Cl)c1)C1CCC1 [Compound 123, N1-(3-chlorobenzyl)-N1-cyclobutylethane-1,2-diamine hydrochloride]","B (With a protection index between 5.0 to 7.0, provides a comparable protection to compound P401 (10 μM) at 10 μM.)"
9,CCN(CCN)Cc1cc(Cl)ccc1F [Compound 95],"B (With a protection index between 5.0 to 7.0, provides a comparable protection to compound P401 (10 μM) at 10 μM.)"
10,NCCN(Cc1cccc(Cl)c1F)CC1CC1 [Compound 153],"C (With a protection index between 3.0 to 5.0, provides a significantly lower protection compared to compound P401 (10 μM) at 10 μM.)"
11,CCN(CCN)Cc1c(F)ccc(Cl)c1F [Compound 92],"A (With a protection index over 7.0, provides a significantly better protection over compound P401 (10 μM) at 10 μM.)"

# Same assay, conditions: second subset; protection index from area above curve over 24 h glutamate/NMDA insult; compounds added 30 min before; 10 μM, Group A also at lower concentrations
row,SMILES,Biological Activity Rating
1,"CC(c1cccc(Cl)c1F)N(CCN)C1CC1 (single isomer, unassigned; (-)) [Compound 220B, (−)-N1-(1-(3-chloro-2-fluorophenyl)ethyl)-N1-cyclopropylethane-1,2-diamine]","A++++ (With a protection index between 5.0 to 7.0, provides a comparable protection to compound P401 (10 μM) at 0.1 μM.)"
2,CCN(CCN)C(C)c1cccc(Cl)c1 (stereo not drawn) [Compound 109],"A (With a protection index over 7.0, provides a significantly better protection over compound P401 (10 μM) at 10 μM.)"
3,"CC(c1cccc(Cl)c1F)N(CCN)C12CC(C1)C2 (stereo not drawn) [Compound 182, N1-(bicyclo[1.1.1]pentan-1-yl)-N1-(1-(3-chloro-2-fluorophenyl)ethyl)ethane-1,2-diamine hydrochloride]","A+ (With a protection index between 5.0 to 7.0, provides a comparable protection to compound P401 (10 μM) at 3.0 μM.)"
4,"CC(c1cc(F)cc(F)c1Cl)N(CCN)C1CC1 (stereo not drawn) [Compound 188, N′-[1-(2-chloro-3,5-difluoro-phenyl)ethyl]-N′-cyclopropyl-ethane-1,2-diamine hydrochloride]","A++ (With a protection index between 5.0 to 7.0, provides a comparable protection to compound P401 (10 μM) at 1.0 μM.)"
5,"CC(c1cccc(Cl)c1F)N(CCN)C1CCCC1 (stereo not drawn) [Compound 184, N1-(1-(3-chloro-2-fluorophenyl)ethyl)-N1-cyclopentylethane-1,2-diamine dihydrochloride]","A (With a protection index over 7.0, provides a significantly better protection over compound P401 (10 μM) at 10 μM.)"
6,"CC(c1cccc(Cl)c1F)N(CCN)C1CCC1 (stereo not drawn) [Compound 180, N1-(cyclobutyl)-N1-(1-(3-chloro-2-fluorophen, l)ethyl)ethane-1,2-diamine hydrochloride]","A++ (With a protection index between 5.0 to 7.0, provides a comparable protection to compound P401 (10 μM) at 1.0 μM.)"

# Same assay, conditions: third subset; A++++ or above correlates with IC50; A++ and A+++ as defined in the source
row,SMILES,Biological Activity Rating
1,CC(c1c(F)ccc(Cl)c1F)N(CCN)C1CC1.Cl (stereo not drawn) [Compound 187],A++
2,"N#Cc1cccc(CN(CCN)C2CC2)c1F [Compound 219, 3-(((2-aminoethyl)(cyclopropyl)amino)methyl)-2-fluorobenzonitrile hydrochloride]",A+++
3,CC(c1cc(Cl)ccc1F)N(CCN)C1CC1 (stereo not drawn) [Compound 243],A+++
4,CC(c1cccc(Br)c1F)N(CCN)C1CCC1 (stereo not drawn) [Compound 227B],A+++
5,CC(c1c(F)cccc1Cl)N(CCN)C1CC1 (stereo not drawn) [Compound 186],A+++
6,NCCN(Cc1cccc(Br)c1F)C1CC1 [Compound 219B],A++
7,CC(c1c(Cl)ccc(Cl)c1F)N(CCN)C1CC1 (stereo not drawn) [Compound 242],A+++
